Laboratory results published in patent US10626112B2, “Heterocyclic sulfonamide derivative and medicine comprising same” (EA PHARMA CO., LTD., priority 2014, dated 2020).

Biological target: human TRPA1 (Homo sapiens (Human), UniProt O75762)
Assay: Measurement of TRPA1 antagonist activity (1): intracellular calcium increase
Assay type: cell-based
Conditions: 293T cells transfected with human TRPA1 expression plasmid; allylisothiocyanate 20 μM stimulation; intracellular calcium fluorescence; read-out: hTRPA1 IC50
In short: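 HEK293T cells transiently transfected with full-length human TRPA1, loaded with Calcium4 dye in HBSS/20 mM HEPES pH 7.2. Test compound preincubated 10 min, then allylisothiocyanate added at 20 μM final and fluorescence change followed for 5 min. IC50 from sigmoid fit of percent inhibition relative to agonist and buffer controls.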

Sequence of human TRPA1 (O75762 whole entry): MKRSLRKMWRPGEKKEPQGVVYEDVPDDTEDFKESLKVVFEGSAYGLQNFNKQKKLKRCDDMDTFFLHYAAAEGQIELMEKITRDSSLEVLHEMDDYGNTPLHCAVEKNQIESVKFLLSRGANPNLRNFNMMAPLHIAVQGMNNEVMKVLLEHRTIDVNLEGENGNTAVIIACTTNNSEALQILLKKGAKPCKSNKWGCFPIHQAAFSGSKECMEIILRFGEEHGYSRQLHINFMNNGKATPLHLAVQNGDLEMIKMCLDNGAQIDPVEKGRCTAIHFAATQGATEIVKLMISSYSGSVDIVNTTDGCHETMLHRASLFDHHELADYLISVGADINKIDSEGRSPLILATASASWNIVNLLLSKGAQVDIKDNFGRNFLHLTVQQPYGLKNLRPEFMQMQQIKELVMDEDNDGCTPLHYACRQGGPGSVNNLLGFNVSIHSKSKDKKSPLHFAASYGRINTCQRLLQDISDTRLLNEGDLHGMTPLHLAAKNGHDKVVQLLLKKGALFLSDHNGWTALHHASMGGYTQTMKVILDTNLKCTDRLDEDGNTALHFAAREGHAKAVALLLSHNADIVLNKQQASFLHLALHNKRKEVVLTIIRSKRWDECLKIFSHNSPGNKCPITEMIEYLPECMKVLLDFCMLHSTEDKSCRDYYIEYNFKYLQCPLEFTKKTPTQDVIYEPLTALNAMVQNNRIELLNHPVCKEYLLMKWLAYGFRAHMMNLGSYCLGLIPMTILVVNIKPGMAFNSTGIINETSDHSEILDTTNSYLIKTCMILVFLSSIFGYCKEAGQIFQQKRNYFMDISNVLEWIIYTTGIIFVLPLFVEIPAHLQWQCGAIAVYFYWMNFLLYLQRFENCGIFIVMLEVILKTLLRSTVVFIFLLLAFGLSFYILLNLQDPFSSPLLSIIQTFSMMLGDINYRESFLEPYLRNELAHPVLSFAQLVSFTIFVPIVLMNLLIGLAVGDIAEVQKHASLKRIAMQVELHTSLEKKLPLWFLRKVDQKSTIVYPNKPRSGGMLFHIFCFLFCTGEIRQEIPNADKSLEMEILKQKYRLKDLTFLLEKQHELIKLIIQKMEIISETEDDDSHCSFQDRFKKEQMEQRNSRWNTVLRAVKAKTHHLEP

Compound	IC50
CC(C)(C)c1ccc(-c2ccnc(CNC(=O)[C@@H]3CCCN3S(=O)(=O)c3cc4ccccc4o3)c2)cc1 [Example 285, (2S)-1-(benzofuran-2-ylsulfonyl)-N-[[4-(4-tert-butylphenyl)-2-pyridyl]methyl]pyrrolidine-2-carboxamide]	30 nM
O=C(NCc1cc(-c2cc(Cl)cs2)ccn1)[C@@H]1CCCN1S(=O)(=O)c1cc2ccccc2o1 [Example 286, (2S)-1-(benzofuran-2-ylsulfonyl)-N-[[4-(4-chloro-2-thienyl)-2-pyridyl]methyl]pyrrolidine-2-carboxamide]	180 nM
C[C@H](NC(=O)[C@@H]1CCCN1S(=O)(=O)c1cc2ccccc2o1)c1cccc(-c2ccc(C(F)(F)F)nc2)c1 [Example 287, (2S)-1-(benzofuran-2-ylsulfonyl)-N-[(1S)-1-[3-[6-(trifluoromethyl)-3-pyridyl]phenyl]ethyl]pyrrolidine-2-carboxamide]	7.9 nM
O=C(NCc1cc(-c2ccc(C(F)(F)F)cc2O)ncn1)[C@@H]1CCCN1S(=O)(=O)c1cc2ccccc2o1 [Example 288, (2S)-1-(benzofuran-2-ylsulfonyl)-N-[[6-[2-hydroxy-4-(trifluoromethyl)phenyl]pyrimidin-4-yl]methyl]pyrrolidine-2-carboxamide]	2.5 nM
O=C(NCc1cc(-c2ccc(C(F)(F)F)cc2O)ncn1)[C@@H]1CCCN1S(=O)(=O)c1cc2cc(F)ccc2o1 [Example 289, (2S)-1-(5-fluorobenzofuran-2-yl)sulfonyl-N-[[6-[2-hydroxy-4-(trifluoromethyl)phenyl]pyrimidin-4-yl]methyl]pyrrolidine-2-carboxamide]	1.4 nM
C[C@H](NS(=O)(=O)c1cc2cc(F)ccc2o1)C(=O)NCc1cc(-c2ccc(C(F)(F)F)cc2O)ncn1 [Example 290, (2S)-2-[(5-fluorobenzofuran-2-yl)sulfonylamino]-N-[[6-[2-hydroxy-4-(trifluoromethyl)phenyl]pyrimidin-4-yl]methyl]propanamide]	5.7 nM
O=C(NCc1cccc(OCc2ccc(C(F)(F)F)cn2)c1)[C@@H]1CCCN1S(=O)(=O)c1cc2ccccc2o1 [Example 291, (2S)-1-(benzofuran-2-ylsulfonyl)-N-[[3-[[5-(trifluoromethyl)-2-pyridyl]methoxy]phenyl]methyl]pyrrolidine-2-carboxamide]	28 nM
CNc1ccccc1-c1cc(CNC(=O)[C@@H]2CCCN2S(=O)(=O)c2cc3ccccc3o2)ccn1 [Example 292, (2S)-1-(benzofuran-2-ylsulfonyl)-N-[[2-[2-(methylamino)phenyl]-4-pyridyl]methyl]pyrrolidine-2-carboxamide]	580 nM
N#Cc1ccc(-c2cc(CNC(=S)[C@@H]3CCCN3S(=O)(=O)c3cc4ccccc4o3)ccn2)cc1 [Example 293, (2S)-1-(benzofuran-2-ylsulfonyl)-N-[[2-(4-cyanophenyl)-4-pyridyl]methyl]pyrrolidine-2-carbothioamide]	3.1 nM
O=C(NCc1ccnc(-c2cc(C(F)(F)F)n[nH]2)c1)[C@@H]1CCCN1S(=O)(=O)c1cc2ccccc2o1 [Example 294, (2S)-1-(benzofuran-2-ylsulfonyl)-N-[[2-[3-(trifluoromethyl)-1H-pyrazol-5-yl]-4-pyridyl]methyl]pyrrolidine-2-carboxamide]	170 nM
O=C(NCc1cccc(OS(=O)(=O)c2cc3cc(F)ccc3o2)c1)[C@@H]1CCCN1S(=O)(=O)c1cc2cc(F)ccc2o1 [Example 295, 5-fluorobenzofuran-2-sulfonic acid [3-[[[(2S)-1-(5-fluorobenzofuran-2-yl)sulfonylpyrrolidine-2-carbonyl]amino]methyl]phenyl]ester]	69 nM
O=C(NCc1cccc(Nc2ccc(C(F)(F)F)cc2)c1)[C@@H]1CCCN1S(=O)(=O)c1cc2cc(F)ccc2o1 [Example 296, (2S)-1-(5-fluorobenzofuran-2-yl)sulfonyl-N-[[3-[4-(trifluoromethyl)anilino]phenyl]methyl]pyrrolidine-2-carboxamide]	7.9 nM
O=C(NCc1cccc(/C=C/c2ccc(C(F)(F)F)cc2)c1)[C@@H]1CCCN1S(=O)(=O)c1cc2cc(F)ccc2o1 [Example 297, (2S)-1-(5-fluorobenzofuran-2-yl)sulfonyl-N-[[3-[(E)-2-[4-(trifluoromethyl)phenyl]vinyl]phenyl]methyl]pyrrolidine-2-carboxamide]	7.5 nM
O=C(NCc1cccc(COc2ccc(C(F)(F)F)cc2)c1)[C@@H]1CCCN1S(=O)(=O)c1cc2ccccc2o1 [Example 298, (2S)-1-(benzofuran-2-ylsulfonyl)-N-[[3-[[4-(trifluoromethyl)phenoxy]methyl]phenyl]methyl]pyrrolidine-2-carboxamide]	11 nM
O=C(Nc1cccc(CNC(=O)[C@@H]2CCCN2S(=O)(=O)c2cc3ccccc3o2)c1)c1ccc(C(F)(F)F)cc1 [Example 300, (2S)-1-(benzofuran-2-ylsulfonyl)-N-[[3-[[4-(trifluoromethyl)benzoyl]amino]phenyl]methyl]pyrrolidine-2-carboxamide]	310 nM
C[C@H](NS(=O)(=O)c1cc2cnccc2o1)C(=O)NCc1cc(-c2ccc(C(F)(F)F)cc2)ncn1 [Example 301, (2S)-2-(furo[3,2-c]pyridin-2-ylsulfonylamino)-N-[[6-[4-(trifluoromethyl)phenyl]pyrimidin-4-yl]methyl]propanamide]	30 nM
C[C@H](NS(=O)(=O)c1cc2cnccc2o1)C(=O)NCc1ccnc(-c2ccc(C(F)(F)F)cc2O)c1 [Example 303, (2S)-2-(furo[3,2-c]pyridin-2-ylsulfonylamino)-N-[[2-[2-hydroxy-4-(trifluoromethyl)phenyl]-4-pyridyl]methyl]propanamide]	42 nM
C[C@H](NS(=O)(=O)c1cc2cnccc2o1)C(=O)NCc1cc(-c2ccc(C(F)(F)F)cn2)ccn1 [Example 304, (2S)-2-(furo[3,2-c]pyridin-2-ylsulfonylamino)-N-[[4-[5-(trifluoromethyl)-2-pyridyl]-2-pyridyl]methyl]propanamide]	350 nM
C[C@H](NS(=O)(=O)c1cc2cnccc2o1)C(=O)NCc1cc(-c2ccc(OC(F)(F)F)cc2)ncn1 [Example 305, (2S)-2-(furo[3,2-c]pyridin-2-ylsulfonylamino)-N-[[6-[4-(trifluoromethoxy)phenyl]pyrimidin-4-yl]methyl]propanamide]	26 nM
O=C(NCc1cc(-c2ccc(OC(F)(F)F)cc2)ncn1)[C@@H]1CCCN1S(=O)(=O)c1cc2cnccc2o1 [Example 306, (2S)-1-furo[3,2-c]pyridin-2-ylsulfonyl-N-[[6-[4-(trifluoromethoxy)phenyl]pyrimidin-4-yl]methyl]pyrrolidine-2-carboxamide]	2.8 nM
O=C(NCc1ccc(F)c(-c2ccc(C(F)(F)F)cc2)c1)[C@@H]1CCCN1S(=O)(=O)c1cc2ccccc2o1 [Example 307, (2S)-1-(benzofuran-2-ylsulfonyl)-N-[[4-fluoro-3-[4-(trifluoromethyl)phenyl]phenyl]methyl]pyrrolidine-2-carboxamide]	1.7 nM
O=C(NCc1ccc(F)c(-c2ccc(C(F)(F)F)cc2O)c1)[C@@H]1CCCN1S(=O)(=O)c1cc2ccccc2o1 [Example 308]	360 nM
O=C(NCc1ccc(F)c(-c2ccc(C(F)(F)F)cn2)c1)[C@@H]1CCCN1S(=O)(=O)c1cc2ccccc2o1 [Example 309, (2S)-1-(benzofuran-2-ylsulfonyl)-N-[[4-fluoro-3-[5-(trifluoromethyl)-2-pyridyl]phenyl]methyl]pyrrolidine-2-carboxamide]	10 nM
COc1cc(CNC(=O)[C@@H]2CCCN2S(=O)(=O)c2cc3ccccc3o2)cc(-c2ccc(C(F)(F)F)nc2)c1 [Example 310, (2S)-1-(benzofuran-2-ylsulfonyl)-N-[[3-methoxy-5-[6-(trifluoromethyl)-3-pyridyl]phenyl]methyl]pyrrolidine-2-carboxamide]	2.5 nM
CC(C)COc1nc(CNC(=O)[C@@H]2CCCN2S(=O)(=O)c2cc3ccccc3o2)cc(-c2ccc(C(F)(F)F)cc2)n1 [Example 311, (2S)-1-(benzofuran-2-ylsulfonyl)-N-[[2-isobutoxy-6-[4-(trifluoromethyl)phenyl]pyrimidin-4-yl]methyl]pyrrolidine-2-carboxamide]	3.7 nM
CN(C)c1nc(CNC(=O)[C@@H]2CCCN2S(=O)(=O)c2cc3ccccc3o2)cc(-c2ccc(C(F)(F)F)cc2)n1 [Example 312, (2S)-1-(benzofuran-2-ylsulfonyl)-N-[[2-(dimethylamino)-6-[4-(trifluoromethyl)phenyl]pyrimidin-4-yl]methyl]pyrrolidine-2-carboxamide]	5.3 nM
CC#CCN([C@@H](C)C(=O)NCc1ccnc(-c2ccc(C(F)(F)F)nc2)c1)S(=O)(=O)c1cc2cc(F)ccc2o1 [Example 313, (2S)-2-[but-2-ynyl-(5-fluorobenzofuran-2-yl)sulfonyl-amino]-N-[[2-[6-(trifluoromethyl)-3-pyridyl]-4-pyridyl]methyl]propanamide]	37 nM
C#CCN([C@@H](C)C(=O)NCc1ccnc(-c2ccc(C(F)(F)F)nc2)c1)S(=O)(=O)c1cc2cc(F)ccc2o1 [Example 314, (2S)-2-[(5-fluorobenzofuran-2-yl)sulfonyl-prop-2-ynyl-amino]-N-[[2-[6-(trifluoromethyl)-3-pyridyl]-4-pyridyl]methyl]propanamide]	4.6 nM
O=C(NCc1cccc(SCc2ccc(C(F)(F)F)cc2)c1)[C@@H]1CCCN1S(=O)(=O)c1cc2ccccc2o1 [Example 315, (2S)-1-(benzofuran-2-ylsulfonyl)-N-[[3-[[4-(trifluoromethyl)phenyl]methylsulfanyl]phenyl]methyl]pyrrolidine-2-carboxamide]	22 nM
O=C(NCc1cccc([S+]([O-])Cc2ccc(C(F)(F)F)cc2)c1)[C@@H]1CCCN1S(=O)(=O)c1cc2ccccc2o1 (stereo partly drawn) [Example 316, (2S)-1-(benzofuran-2-ylsulfonyl)-N-[[3-[[4-(trifluoromethyl)phenyl]methylsulfinyl]phenyl]methyl]pyrrolidine-2-carboxamide]	230 nM
